Assay results from patent publication US20230000064A1, “OBSESSIVE-COMPULSIVE DISORDER ANIMAL MODEL AND PRODUCTION METHOD THEREOF” (KOREA UNIVERSITY RESEARCH AND BUSINESS FOUNDATION, priority 2019, published 2023).
“Also recorded” adds a separate entry of the source.

Key:
Type in all cases: in vivo
[1] = tested on: BLA-DMS neural circuit; assay: Hoarding test (two connected cages) in mice with activated BLA-DMS circuit; conditions: day 13 evening to day 14 morning, no administration; vs saline-administered group; FIGS. 12-14
Excerpt: A tool was manufactured by connecting two cages, with a passage in the middle thereof. The cages each have a dimension of width 25 cm×length 20 cm×height 12 cm (Jeung Do PNP). For the passage, a PVC cylinder with a dimension of diameter 5 cm and length 19 cm was used. A hole with a diameter of 5 cm was drilled 1 cm above the bottom of each cage, and a sill was installed on the PVC so that the length of the passage was 9.5 cm when a PVC cylinder was inserted into the holes. Mice were placed one per cage. In order for the mouse to recognize one cage as a home cage, beddings were placed on only one cage and the other cage was left in the default state, and the passageway to the opposite side of the home cage was blocked for one day. Then the next evening, the food in the home cage was removed, foods and toys were placed on the other cage, and the blocked passage was opened. At this time, water was placed in the home cage. Differences between the groups were compared in how many food pellets and toys were brought to the home cage on the morning of the last day of the experiment. Quantification was made of the brought weight for food and the brought number for toys. […]

[2] = tested on: BLA-DMS neural circuit; assay: Hole board test in mice with chemogenetically (hM3Dq/CNO) activated BLA-DMS circuit
Experimental: A solution of clozapine N-oxide (CNO; Tocris, Bristol, United Kingdom) in saline was intraperitoneally injected to mice. Taking into account the time it takes for the drug to act, the experiment was started after about 30 minutes. The drug was injected at a dose of 1 mg/kg at the same time every day.
As a control for CNO, saline was used. Saline was also intraperitoneally injected at the same volume and the experiments were conducted in the same condition as for the CNO group.
A square acrylic plate with 9 holes (3 cm in diameter) was made to be 30 cm wide and 30 cm long. A home base was constructed with a material different from the acryl plate. Based on the home base, water was placed on the right end of the acrylic plate, and 10% sucrose was placed on the other side. Afterward, a mouse was placed in the home base and monitored for 1 hour under a video camera. Remaining amounts of sucrose and water were recorded after completion of the test.
In the present disclosure, mice were divided into two groups: saline-administered and CNO-administered groups and subjected to the test at the same time every day for 18 days. After a four-day learning period, the fourth day was used as the base. During this period, the mice located the water and 10% sucrose on the hole board. Saline and CNO were administered to each group for a total of 12 days from the 5th day to the 16th day. On the 17th day, it was observed whether the OCD phenomenon was maintained even in the absence of administration of saline and CNO. Finally, on the 18th day, the mice were measured for cognitive flexibility after switching the positions of water and 10% sucrose. The video between the base and the 18th day (base to day 14) was analyzed. The analysis items included checking behavior (repetitive checking), repetitive nose poking (repetitively inserting the nose into the hole), excessive grooming (excessive washing—hair trimming), and flexibility (cognitive flexibility).
As an analysis method, the video was analyzed with the naked eye through the blind test. Through the blind test, the objectivity of the experiment was secured by preventing the experimenter from knowing about the saline-administered group and the CNO-administered group. A measurement was made of: the frequency of going to water and sucrose for the checking behavior (repetitive checking); the number of actions of inserting the nose into each hole for repetitive nose poking (repeatedly inserting the nose into the hole); the total length of grooming (duration) and the total number of times (frequency) of the start and end of grooming for excessive grooming (excessive washing—hair trimming); and the number of times to go to water and sucrose where the positions of the 18th day (day 14) were reversed, for the flexibility (cognitive flexibility).
AAV-retro Cre virus, which can make a retrograde infection, was injected to the DMS while AAV-DIO-hM3Dq, which specifically expresses Cre, was injected into the BLA. That is, advantage was taken of the principle that when the retrograde virus from the DMS expresses Cre in the neuron cell body (soma) of the BLA, the AAV-DIO-hM3Dq virus is induced to express hM3Dq thereat only in the presence of Cre. hM3Dq can activate neurons in cooperation with the membrane protein GPCR (G-protein-coupled receptors) upon stimulation with the drug CNO (clozapine n-oxide), whereby the specific activation of the BLA-DMS neural circuit can be achieved. After injecting different viruses into these two areas, it takes more than 4 weeks for the viruses to show their activities.
After 4 weeks, the learning process was performed for the first 4 days on the hole board without injection of CNO (clozapine n-oxide). During this process, the mice identify and remember the location of the water and 10% sucrose. The BLA-DMS circuit was continuously activated by injecting CNO (1 mg/kg) at the same time every day for 12 days, using the behavioral values of the 4th day as a reference. […]

[3] = tested on: BLA-DMS neural circuit; assay: Observation of hairs around the mouth after the tests; conditions: 20 days after the last test day; vs saline-administered mice; FIG. 15
Excerpt: Additionally, after 20 days from the last day, it was observed that the hairs around the mouth of the Clozapine n-oxide (CNO)-administered mice fell out, compared to the saline-administered mice, indicating a phenotype caused by excessive grooming (see FIG. 15).

[4] = CNO 1 mg/kg i.p. daily vs saline, repeated 1-way ANOVA, FIG. 8

## C[N+]1([O-])CCN(C2=Nc3cc(Cl)ccc3Nc3ccccc32)CC1 [CNO, clozapine N-oxide]
[1]
  hoarding of food pellets brought to home cage: significantly increased
  hoarding of toys brought to home cage: significantly increased
[2]; CNO 1 mg/kg i.p. daily for 12 days vs saline control, repeated 1-way ANOVA, FIG. 6
  checking frequency of heading toward 10% sucrose: significantly increased
[2]; CNO 1 mg/kg i.p. daily for 12 days vs saline-administered group, FIG. 6
  frequency of heading toward water (checking behavior): no difference
[2]; CNO 1 mg/kg i.p. daily vs saline, repeated 1-way ANOVA, FIG. 7
  repetitive nose poking frequency: greatly increased
[2]; [4]
  grooming frequency: significantly increased
  grooming time (duration): significantly increased
[2]; CNO vs saline-administered group, FIG. 9
  amount of 10% sucrose drank: no difference
[2]; day 13, saline and CNO not administered
  obsessive-compulsive disorder (checking and nose poking) on day 13 without administration: maintained
[2]; day 14 (18th day), vs saline-administered group, Student t-test, FIG. 10
  cognitive flexibility (times going to water and sucrose after positions swapped): significantly lower
[3]
  hairs around the mouth (phenotype caused by excessive grooming): fell out; also recorded: disappear
